# Patent US9840482B2, “Sulfonamide derivatives and pharmaceutical applications thereof” (Sunshine Lake Pharma Co., Ltd., priority 2014, dated 2017)
# Test system: not listed separately
# Assay: Pharmacokinetic evaluation after intravenous or gavage administration to dogs
# Assay type: in vivo, Beagle dogs
# Conditions: by gavage, 5 mg/kg
# Protocol: The LC/MS/MS system for the analysis comprised an Agilent 1200 Series Vacuum Degasser, binary syringe pumps, a well-plate autosampler, a column oven and an Agilent G6430A Triple Quadrupole Mass Spectrometer equiped with an electrospray ionization (ESI) source, Quantitative analysis was performed in the MRM mode and the conversion parameters of MRM were listed in Table 3:
# Analysis was performed on waters)(Bridge C18 (2.1×50 mm, […] column, and 5 μL of sample was injected). Conditions of the analysis comprised: a mobile phase consisted of mobile phase A (water, 2 mM ammonium formate and 0.1% formic acid) and mobile phase B (methanol, 2 mM ammonium formate and 0.1% formic acid), the flow rate was 0.4 mL/min, and the conditions of gradient elution were listed in Table 4: […]
# In vivo pharmacokinetic assays in dogs of the compounds disclosed herein were performed by the following steps.
# Experiments were divided into two groups, one group was performed through intravenous drug delivery, and the other group was performed by gavage. The compounds disclosed herein were administered in form of a saline solution containing 5% DMSO, 5% Kolliphor HS 15, 2% (2% HC1) and 88% Saline, or the solution containing 10% DMSO, 10% Kolliphor HS 15 and 80% physiological saline. […]
row,SMILES,area under the plasma concentration vs time curve (AUClast)
1,"COc1ccc(S(=O)(=O)NCC(C)(C)c2cccc3ccccc23)cc1N1CCNCC1 [Example 13, 4-Methoxy-N-(2-methyl-2-(naphthalen-1-yl)propyl)-3-(piperazin-1-yl) benzenesulfonamide]",more than 15000 h*ng/mL

# Biological target: T1, human 5-HT6 receptor (Homo sapiens, UniProt P50406)
# T1 construct: expressed in transfected cells; host or cells: CHO cells (membrane preparation)
# Assay: Radioligand binding assay ([3H]LSD) on membranes of CHO cells expressing human 5-HT6 receptor
# Conditions: human 5-HT6 receptor expressed in CHO cell, 2 nM [3H]LSD, 37° C., 120 min
# Protocol: The binding affinities of the compounds of this invention to human 5-HT6 receptor expressed in CHO cell were evaluated by radioligand binding assay in this example. Briefly, for each compound of the present invention, the binding affinity thereof was tested through the following steps:
# 32 μg membrane proteins of CHO cell expressing human 5-HT6 receptor, 2 nM of radioactive marker [3H]LSD, a compound of the present invention having different test concentrations, 100 μM 5-HT (5-HT was used to eliminate nonspecific binding sites) and a buffer solution were mixed uniformly. Then the resulting mixture was incubated at 37° C. for 120 min, in which the buffer solution was comprised of 50 mM Tris-HC1 (pH 7.4), 10 mM MgCl2, 0.5 mM EDTA, 10 μM pargyline and 20 mg/L protease inhibitor.
# After incubation, the resluting mixture was filtered by a fiberglass filter in vacuo (GF/B, Packard), and the filter membrane of the fiberglass filter was preimpregnated with 0.3% PEI before the filtering and washed with 50 mM of Tris-HC1 for several times after the filtering. After the filter membrane was dried, and the radioactivity of filter membrane was determined by liquid scintillation counting by using a scintillometer (Topcount, Packard). The reference standard was 5-HT, and IC50 values were calculated by competitive inhibition curves plotted based on several inhibition ratios and the corresponding compound concentrations.
# T1 sequence (P50406 whole entry): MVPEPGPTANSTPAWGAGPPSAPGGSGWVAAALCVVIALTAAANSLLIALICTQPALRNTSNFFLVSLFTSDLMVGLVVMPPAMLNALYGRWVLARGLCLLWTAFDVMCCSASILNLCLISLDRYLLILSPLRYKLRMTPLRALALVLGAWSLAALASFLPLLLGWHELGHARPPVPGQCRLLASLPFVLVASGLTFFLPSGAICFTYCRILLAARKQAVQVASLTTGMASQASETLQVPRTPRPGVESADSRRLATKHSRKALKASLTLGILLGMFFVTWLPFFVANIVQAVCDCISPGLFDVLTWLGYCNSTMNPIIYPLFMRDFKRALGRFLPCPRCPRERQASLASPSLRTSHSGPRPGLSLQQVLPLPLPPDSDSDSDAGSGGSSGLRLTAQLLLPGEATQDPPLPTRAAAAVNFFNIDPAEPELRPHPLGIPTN
row,SMILES,IC50
1,"COc1ccc(S(=O)(=O)NCCc2cccc3ccc(Br)cc23)cc1N1CCN(C)CC1 [Example 12, N-(2-(7-Bromonaphthalen-1-yl)ethyl)-4-methoxy-3-(4-methylpiperazin-1-yl) benzene sulfonamide]",0.17 nM
2,COc1ccc2cccc(CCNS(=O)(=O)c3ccc(OC)c(N4CCN(C)CC4)c3)c2c1 [Example 8],0.5 nM
3,COc1ccc(S(=O)(=O)NCCc2cccc3cc(F)ccc23)cc1N1CCN(C)CC1 [Example 6],1.3 nM
4,"COc1ccc(S(=O)(=O)NCC2(c3cccc4cc(F)ccc34)CC2)cc1N1CCNCC1 [Example 25, N-((1-(6-fFluoronaphthalen-1-yl)cyclopropyl)methyl)-4-methoxy-3-(piperazin-1-yl) benzenesulfonamide]",16 nM
5,"COc1ccc(S(=O)(=O)NCC(C)(C)c2cccc3ccc(Br)cc23)cc1N1CCN(C)CC1 [Example 22, N-(2-(7-Bromonaphthalen-1-yl)-2-methylpropyl)-4-methoxy-3-(4-methylpiperazin-1-yl) benzenesulfonamide]",0.31 nM
6,"COc1ccc(S(=O)(=O)NCC(C)(C)c2cccc3ccccc23)cc1N1CCNCC1 [Example 13, 4-Methoxy-N-(2-methyl-2-(naphthalen-1-yl)propyl)-3-(piperazin-1-yl) benzenesulfonamide]",1.3 nM
7,"COc1ccc2cccc(C3(CNS(=O)(=O)c4ccc(OC)c(N5CCN(C)CC5)c4)CC3)c2c1 [Example 28, 4-Methoxy-N-((1-(7-methoxynaphthalen-1-yl)cyclopropyl)methyl)-3-(4-methylpiperazin-1-yl) benzenesulfonamide]",2.1 nM
8,COc1ccc(S(=O)(=O)NCCc2ccc(OC)c3ccccc23)cc1N1CCN(C)CC1 [Example 34],2.6 nM
9,"COc1ccc(S(=O)(=O)NCC2(c3cccc4ccccc34)CC2)cc1N1CCNCC1 [Example 23, 4-Methoxy-N-((1-(naphthalen-1-yl)cyclopropyl)methyl)-3-(piperazin-1-yl) benzenesulfonamide]",3.7 nM
10,COc1ccc(S(=O)(=O)NCCc2cccc3cc(F)ccc23)cc1N1CCNCC1 [Example 5],4.1 nM
11,"COc1ccc(S(=O)(=O)NCCc2ccc(OC)c3ccccc23)cc1N1CCNCC1 [Example 33, 4-Methoxy-N-(2-(4-methoxynaphthalen-1-yl)ethyl)-3-(piperazin-1-yl) benzenesulfonamide]",5.5 nM
12,COc1ccc(S(=O)(=O)NCCc2cccc3ccc(F)cc23)cc1N1CCN(C)CC1 [Example 10],0.28 nM
13,COc1ccc(S(=O)(=O)NCC2(c3cccc4ccc(F)cc34)CC2)cc1N1CCNCC1 [Example 29],2.3 nM
14,COc1ccc(S(=O)(=O)NCCc2cccc3ccc(F)cc23)cc1N1CCNCC1 [Example 9],0.69 nM
15,"COc1ccc2cccc(C(C)(C)CNS(=O)(=O)c3ccc(OC)c(N4CCN(C)CC4)c3)c2c1 [Example 18, 4-Methoxy-N-(2-(7-methoxynaphthalen-1-yl)-2-methylpropyl)-3-(4-methylpiperazin-1-yl) benzenesulfonamide]",1.4 nM
16,"COc1ccc(S(=O)(=O)NCC2(c3cccc4cc(F)ccc34)CC2)cc1N1CCN(C)CC1 [Example 26, N-((1-(6-Fluoronaphthalen-1-yl)cyclopropyl)methyl)-4-methoxy-3-(4-methylpiperazin-1-yl) benzenesulfonamide]",3.2 nM
17,"COc1ccc(S(=O)(=O)NCC(C)(C)c2cccc3ccc(Br)cc23)cc1N1CCNCC1 [Example 21, N-(2-(7-Bromonaphthalen-1-yl)-2-methylpropyl)-4-methoxy-3-(piperazin-1-yl) benzenesulfonamide]",1.7 nM
18,COc1ccc(S(=O)(=O)NCCc2cccc3ccccc23)cc1N1CCN(C)CC1 [Example 2],0.92 nM
19,"COc1ccc(S(=O)(=O)NCC(C)(C)c2cccc3cc(F)ccc23)cc1N1CCNCC1 [Example 15, N-(2-(6-fluoronaphthalen-1-yl)-2-methylpropyl)-4-methoxy-3-(piperazin-1-yl)benzene sulfonamide]",11 nM
20,COc1ccc(S(=O)(=O)NCCc2ccc(F)c3ccccc23)cc1N1CCN(C)CC1 [Example 36],0.46 nM
21,"COc1ccc(S(=O)(=O)NCCc2cccc3c(OC)cccc23)cc1N1CCNCC1 [Example 3, 4-Methoxy-N-(2-(5-methoxynaphthalen-1-yl)ethyl)-3-(piperazin-1-yl) benzenesulfonamide]",31 nM
22,"COc1ccc(S(=O)(=O)NCCc2cccc3ccc(Br)cc23)cc1N1CCNCC1 [Example 11, N-(2-(7-Bromonaphthalen-1-yl)ethyl)-4-methoxy-3-(piperazin-1-yl) benzenesulfonamide]",2.1 nM
23,COc1ccc(S(=O)(=O)NCCc2ccc(F)c3ccccc23)cc1N1CCNCC1 [Example 35],1.6 nM
24,"COc1ccc(S(=O)(=O)NCCc2cccc3c(OC)cccc23)cc1N1CCN(C)CC1 [Example 4, 4-Methoxy-N-(2-(5-methoxynaphthalen-1-yl)ethyl)-3-(4-methylpiperazin-1-yl) benzenesulfonamide]",11 nM
25,COc1ccc(S(=O)(=O)NCC2(c3cccc4ccc(Br)cc34)CC2)cc1N1CCNCC1 [Example 31],1.2 nM
26,"COc1ccc2cccc(C(C)(C)CNS(=O)(=O)c3ccc(OC)c(N4CCNCC4)c3)c2c1 [Example 17, 4-Methoxy-N-(2-(7-methoxynaphthalen-1-yl)-2-methylpropyl)-3-(piperazin-1-yl)benzene sulfonamide]",1.1 nM
27,"COc1ccc(S(=O)(=O)NCC2(c3cccc4ccccc34)CC2)cc1N1CCN(C)CC1 [Example 24, 4-Methoxy-3-(4-methylpiperazin-1-yl)-N-((1-(naphthalen-1-yl)cyclopropyl)methyl) benzenesulfonamide]",2 nM
28,COc1ccc(S(=O)(=O)NCCc2cccc3ccccc23)cc1N1CCNCC1 [Example 1],2.7 nM
29,"COc1ccc2cccc(C3(CNS(=O)(=O)c4ccc(OC)c(N5CCNCC5)c4)CC3)c2c1 [Example 27, 4-Methoxy-N-((1-(7-methoxynaphthalen-1-v1)cyclopropyl)methyl)-3-(piperazin-1-yl) benzenesulfonamide]",5 nM
30,"COc1ccc2cccc(CCNS(=O)(=O)c3ccc(OC)c(N4CCNCC4)c3)c2c1 [Example 7, 4-Methoxy-N-(2-(7-methoxynaphthalen-1-yl)ethyl)-3-(piperazin-1-yl) benzenesulfonamide]",1 nM
